For experiment [1], the system named is C. albicans strain 43001. To be noted: cited from earlier work.
The subject of experiment [2] is C. albicans strain 53264. To be noted: cited from earlier work.
In experiment [3] the test system is C. albicans SC5314. The experiment is described as follows: In vivo model of disseminated candidiasis in BALB/c mice (survival, body weight, renal fungal burden). To be noted: for survival compared to saline controls, P (log-rank analysis): observed 26 days p.i.; for survival compared to saline controls, P (log-rank analysis) / survival efficacy, comparison in words: FIG. 8; for renal fungal burden reduced to a greater extent than fluconazole, P (Fisher's LSD test): peptide 0.1 or 0.25 mg/kg versus fluconazole 5 mg/kg; for survival efficacy relative to MTD1280: candidemia model, survival as metric, 0.1 mg/kg versus MTD1280 0.25 mg/kg, FIGS. 10 to 13; for survival by end point analysis versus fluconazole: χ^2 analysis at day 30 p.i. As for the experimental part:
Mice were infected i.v. at T=0 with 3×105 blastospores of C. albicans SC5314.
Mice were infected i.v. at T=0 with 3×10^5 blastospores of C. albicans SC5314. At T=24 h, mice were treated i.p. daily for 7 d w.
Suitable cyclic tetradecapeptides can be identified by screening against a murine model for disseminated candidiasis. C. albicans SC5314 obtained from American Type Culture Collection can be used as a suitable reference strain. […] Typical antifungal drugs include caspofungin and fluconazole. Cyclic tetradecapeptides to be tested and antifungal drugs can be suspended or dissolved in water or isotonic saline and administered by one or more of intravenous, subcutaneous, intramuscular, and/or intraperitoneal injection.
In vitro activity of synthetic cyclic tetradecapeptides and antifungal compounds can be determined using conventional culture techniques that are known in the art as described above in relation to RTD-1, and can be used to determine sub-antifungal concentrations. Systemic or disseminated candidiasis can be modeled in vivo by, for example, challenging BALB/c female mice with 0.15 to 2 mL of C. albicans (reference strain or resistant strain) at from about 2×10^5 to about 2×10^7 CFU/mL of the organism. Animals can the be treated with candidate synthetic cyclic tetradecapeptide before challenge with the pathogen, at the time of pathogen challenge, or after challenge with the pathogen. Antifungal drugs and/or candidate synthetic cyclic tetradecapeptide can be administered by intravenous, subcutaneous, intramuscular, and/or intraperitoneal injection in such an in vivo model of systemic or disseminated candidiasis.
In activity studies the synthetic cyclic tetradecapeptide MTD1280 (SEQ ID NO. 6), which was identified initially as having significant antifungal activity, was used as a model peptide. Briefly, 7-8 week old, immunocompetent, female BALB/c mice were challenged i.v. at T=0 with 3×10^5 CFU of C. albicans SC5314. […] As shown, caspofungin (Caspo) is not effective against this strain of C. albicans.
Candidate synthetic cyclic tetradecapeptides were pre-screened for tolerance by determining a lack of toxicity when administered at >5 mg/kg.

Experiment [4] has as its system C. albicans SC5314. To be noted: strain SC5314, cited from earlier work.
For experiment [5], the system named is susceptible and multiple drug resistant strains of C. albicans. To be noted: cited from earlier work.
Experiment [6] has as its system C. albicans. To be noted: cited from earlier work.
Experiment [7] has as its system C. albicans. Nature of the experiment: In vitro antifungal activity, sub-antifungal concentration, C. albicans in general. The class given is cell-based, Candida albicans. To be noted: in the presence of serum. The text has this:
Within the context of this application, a “sub-antifungal concentration” in regard to a fungal pathogen should be understood to be a concentration at which the compound so described has no antifungal effect when applied to the fungal pathogen in vitro (e.g. in a liquid culture medium), e.g. in the absence of host immune effectors.
Basso et al. (Basso et al., “Rhesus theta defensin 1 promotes long term survival in systemic candidiasis by host directed mechanisms” Nature Scientific Reports (2019) 9: 16905) provides an example of determination of sub-antifungal concentration for the native θ-defensin RTD-1 in regard to different strains of Candida albicans. Cultures of different strains of C. albicans were established in RPMI media or RPMI media containing 50% serum. […] MFC was determined as the lowest concentration that provided 99% killing relative to the input inoculum. MIC was determined as the lowest concentration that inhibited growth.
Based on such data, for C. albicans a sub-antifungal concentration of RTD-1 in the presence of serum would be less than 100 μg/mL. Such sub-antifungal concentrations can be determined experimentally (for example, by culture from a patient sample) or, preferably, from historical data. […]

The mark [8] stands for this setting: 5 mg/kg i.p. daily for 7 d from 24 h p.i.
The mark [9] stands for this setting: 5 mg/kg i.p. once a day for 7 days.
Setting [10] is: RPMI, lowest concentration giving 99% killing.
Setting [11] is: RPMI, lowest concentration that inhibited growth.
The mark [12] stands for this setting: long term survivors 30 days p.i., FIG. 14.

≈ marks a conversion by molar mass, not a printed value. Entries after “also recorded” stand apart in the source; their conditions may differ. Like-named read-outs stand apart in the source and are kept apart here. Bridge positions count the residues as written; N and C are the ends.

Usually MIC stands for the smallest concentration in the dilution series that meets the test's criterion for growth inhibition.

Take `CC[C@H](C)C[C@H](C)CCCCCCCCC(=O)N[C@H]1C[C@@H](O)[C@@H](NCCN)NC(=O)[C@@H]2[C@@H](O)CCN2C(=O)[C@H]([C@H](O)CCN)NC(=O)[C@H]([C@H](O)[C@@H](O)c2ccc(O)cc2)NC(=O)[C@@H]2C[C@@H](O)CN2C(=O)[C@H]([C@@H](C)O)NC1=O` [Caspofungin, caspofungin]: the MFC was 2 µg/mL (≈ 1.83 µM) in experiment [1] (RPMI), greater than 8 µg/mL in experiment [2] (RPMI) and greater than 256 µg/mL in experiment [4] (setting [10]). Besides, the MIC in experiment [1] (RPMI) was 2 µg/mL (≈ 1.83 µM); in experiment [2] (RPMI), greater than 8 µg/mL; in experiment [4] (setting [11]), 0.06 µg/mL (≈ 0.0549 µM). For the same compound, the “survival compared to saline controls, P (log-rank analysis)” value in experiment [3] (setting [8]) is recorded as 3.4×10^−6. Moreover, the “survival efficacy, comparison in words” value in experiment [3] (setting [9]) is recorded as “not effective”.
On to `OC(Cn1cncn1)(Cn1cncn1)c1ccc(F)cc1F` [Fluconazole, fluconazole], for which, in experiment [3] (setting [8]), the “survival compared to saline controls, P (log-rank analysis)” value is recorded as 3.4×10^−6. For the same compound, the “renal fungal burden in kidney homogenates” value in experiment [3] (long term survivors 30 days p.i., peptide 0.1 or 0.25 mg/kg, fluconazole 5 mg/kg, FIG. 14) is given as “reduced fungal burden”. In experiment [4] (setting [11]), the MIC is 64 µg/mL (≈ 209 µM).
As to “MTD1280: model synthetic cyclic tetradecapeptide θ-defensin analog, SEQ ID NO. 6, used as reference peptide (GVCICRRRFCLCRR; cyclic; Synthetic cyclic peptide MTD1280)”, in experiment [3] (0.1 mg/kg i.p. once a day for 7 days, FIG. 9), the survival benefit entry is recorded as “no survival benefit”. Besides, the “survival compared to saline controls, P (log-rank analysis)” value in experiment [3] (0.25 mg/kg i.p. daily for 7 d from 24 h p.i.) was 2.3×10^−7. The “survival efficacy, comparison in words” value in experiment [3] (0.25 mg/kg i.p. once a day for 7 days) is recorded as “more effective than 5 mg/kg of RTD-1; also recorded: more effective than 5 mg/kg of fluconazole”. Further, the “transient mean reduction in bodyweight” value in experiment [3] (long term surviving treated candidemic mice, plateaued by day 10) came out at 15%. The “share of cohort that regained initial body weights” value in experiment [3] (long term surviving treated mice; by day 3)) is 90%. Moreover, the “renal fungal burden reduced to a greater extent than fluconazole, P (Fisher's LSD test)” value in experiment [3] (setting [12]) is 3×10^−3.
With “MTD1283: synthetic cyclic tetradecapeptide θ-defensin analog, SEQ ID NO. 4, two disulfide bonds (cyclo(GVCICRRRVCICRR); disulfide (positions not given here))”, the “survival efficacy relative to MTD1280” value in experiment [3] is reported as “equivalent or superior to MTD1280”. In experiment [3] (setting [12]), the “renal fungal burden reduced to a greater extent than fluconazole, P (Fisher's LSD test)” value is recorded as 7.4×10^−3. The “survival by end point analysis versus fluconazole” value in experiment [3] (fluconazole 5 mg/kg) was “more effective than fluconazole”.
On to “MTD1288: synthetic cyclic tetradecapeptide θ-defensin analog, SEQ ID NO. 5, two disulfide bonds (cyclo(GLCICRRRACLCRR); disulfide (positions not given here))”, for which the “survival efficacy relative to MTD1280” value in experiment [3] is reported as “equivalent or superior to MTD1280”. The “renal fungal burden reduced to a greater extent than fluconazole, P (Fisher's LSD test)” value in experiment [3] (setting [12]) stood at 0.02. The “survival by end point analysis versus fluconazole” value in experiment [3] (fluconazole 5 mg/kg) is given as “more effective than fluconazole”.
In the case of “MTD12810: synthetic cyclic tetradecapeptide θ-defensin analog, SEQ ID NO. 2, two disulfide bonds (Cys3-Cys12, Cys5-Cys10) (cyclo(GVCSCRRRFCLCRR); disulfide 5-10, 3-12)”, the “survival efficacy relative to MTD1280” value in experiment [3] is “equivalent or superior to MTD1280”. Also, the “renal fungal burden reduced to a greater extent than fluconazole, P (Fisher's LSD test)” value in experiment [3] (setting [12]) is reported as 3.5×10^−5. Further, the “survival by end point analysis versus fluconazole” value in experiment [3] (fluconazole 5 mg/kg) was “more effective than fluconazole”.
In the case of “MTD12811: synthetic cyclic tetradecapeptide θ-defensin analog, SEQ ID NO. 3, two disulfide bonds (cyclo(GVCSCRRRFCICRR); disulfide (positions not given here))”, the “survival efficacy relative to MTD1280” value in experiment [3] was “equivalent or superior to MTD1280”.
“RTD-1: naturally occurring rhesus θ-defensin, cyclic octadecapeptide with three disulfide bonds, SEQ ID NO. 1 (cyclo(GFCRCLCRRGVCRCICTR); disulfide (positions not given here); listed as Macaca mulatta)”: in experiment [5] (in vivo, treatment with RTD-1), the “long term production of pro-inflammatory cytokines” value is “reduction in long term production of pro-inflammatory cytokines”. The “efficacy in animal models of systemic candidiasis” value in experiment [5] (susceptible and multiple drug resistant strains) is “effective”. Moreover, the MFC in experiment [1] (50% serum) was greater than 100 µg/mL; in experiment [1] (RPMI), 12.5 µg/mL; in experiment [2] (50% serum), greater than 100 µg/mL; in experiment [2] (RPMI), 12.5 µg/mL; in experiment [4] (50% serum), greater than 100 µg/mL; in experiment [4] (setting [10]) it was 25 µg/mL. Besides, the MIC in experiment [1] (50% serum) is greater than 100 µg/mL; in experiment [1] (RPMI), 6.25 µg/mL; in experiment [2] (50% serum), greater than 100 µg/mL; in experiment [2] (RPMI), 12.5 µg/mL; in experiment [4] (50% serum), greater than 100 µg/mL; in experiment [4] (setting [11]), 12.5 µg/mL. Also, in experiment [6] (in vitro studies, serum), the “in vitro antifungal activity in the presence of serum” value was “abolished by the presence of serum”. For the same compound, in experiment [6] (in vitro versus murine model), the “in vitro concentration required relative to concentrations effective in vivo” value is no less than 50 fold. In addition, the “survival compared to saline controls, P (log-rank analysis)” value in experiment [3] (setting [8]) is listed as 3.4×10^−6. In addition, the “survival efficacy, comparison in words” value in experiment [3] (setting [9]) was “more effective than 5 mg/kg of fluconazole”. Also, the sub-antifungal concentration entry in experiment [7] is “less than 100 μg/mL”.

The values are drawn from patent US12146005B2, “Compositions and methods for treatment of fungal infections” (THE UNIVERSITY OF SOUTHERN CALIFORNIA, priority 2019, dated 2024).
